Test results taken from US20130287721A1, “METHOD FOR COUNTERACTING AMMONIA MALODOR” (Firmenich SA, priority 2010, published 2013).

System: ammonia lateralization threshold
Experiment: Panel evaluation of the lateralization threshold (LT) of ammonia alone and in combination with a PRM
Type: in vivo, panellists
Set-up: LT of ammonia Panellist 1 Cond II / LT of ammonia Panellist 2 Cond II / LT of ammonia Panellist 3 Cond II: unit not given here
Settings: for Ammonia LT Panellist 1 Cond II / Ammonia LT Panellist 2 Cond II / Ammonia LT Panellist 3 Cond II / Ammonia LT Panellist 1 % Δ / Ammonia LT Panellist 2 % Δ / Ammonia LT Panellist 3 % Δ: Table 3; for Ammonia LT Panellist 1 Cond II / Ammonia LT Panellist 2 Cond II / Ammonia LT Panellist 3 Cond II: ammonia stimulus combined with PRM stimulus (concentration of Table 2 in propylene glycol); for Ammonia LT Panellist 1 % Δ / Ammonia LT Panellist 2 % Δ / Ammonia LT Panellist 3 % Δ / LT of ammonia Panellist 1 %Δ / LT of ammonia Panellist 2 %Δ / LT of ammonia Panellist 3 %Δ: change of ammonia LT, Cond II (with PRM) vs Cond I (ammonia alone); for LT of ammonia Panellist 1 Cond II / LT of ammonia Panellist 2 Cond II / LT of ammonia Panellist 3 Cond II / LT of ammonia Panellist 1 %Δ / LT of ammonia Panellist 2 %Δ / LT of ammonia Panellist 3 %Δ: Table 4; for LT of ammonia Panellist 1 Cond II / LT of ammonia Panellist 2 Cond II / LT of ammonia Panellist 3 Cond II: ammonia stimulus combined with PRM stimulus
Procedure: An ammonia stimulus test range was prepared. To ensure a stable level of ammonia in each stimulus, the ammonia headspace was stabilized by combining appropriate concentrations of NH4Cl, NaOH and H2O instead of simply adding ammonia directly to a solvent. Different concentrations of ammonia were used to create a stimulus test range by utilizing the appropriate amount of each compound (see Table 1).
A stimulus was also prepared for each PRM which was intended to be combined with ammonia stimuli. As the PRMs differed in their potency and to ensure that each PRM stimulus had approximately the same potency, an abbreviated dose response curve was constructed for each PRM by having four panellists evaluate the intensity of five concentration levels of the PRM dissolved in propylene glycol in duplicate. Assessments were made relative to the reference of 170 ppm allyl heptanoate in propylene glycol, which intensity was set to 0. Based upon the average scores, a rough intensity match was made for each PRM utilizing one of the following criteria. If one of the tested concentration levels averaged at or near zero, this concentration level was selected. If the rating created any sort of reasonable curve, the equation of the curve was determined and solved for 0 to arrive at the PRM assessment level. If multiple concentration levels were equally distant form the match level, then the standard deviation across individuals was considered, as were the individual responses. In general, the PRM level was selected to be on average close to 0 with low variability, with two panellists saying the level was a bit too high and the other two panellists saying the level was a bit too low. The PRMs for which a stimulus was prepared are listed in Table 2 below, together with the concentration of the PRM in the stimulus.
Volunteers were screened for their ability to lateralize ammonia stimuli. For the screening, the experimenter measured the participant's lateralization threshold for ammonia using a two-alternative forced choice modified staircase procedure employing a four-in, two-down, one-up rule with a five reversal criterion, as described below, On each trial volunteers were presented with a pair of glass bottles with clean, custom-made nose pieces. One bottle contained ammonia at a particular level selected from Table 1 and the other bottle contained water only. Each bottle was applied to one nostril using the nose piece. The volunteers were asked to identify which bottle in each pair contained ammonia.
If the ammonia stimulus was correctly identified in four consecutive trials, the concentration was decreased by one level of Table 1 on the next trial. If an incorrect answer was provided, the concentration was increased by one level of Table 1. Location (left or right nostril) of the stimulus was randomized over presentations. Testing continued until one of the following occurred: • 1) Five reversals (correct decision followed by an incorrect decision or vice versa) were achieved; • 2) The volunteer gave a correct response twice in a row at the lowest level of Table 1; or • 3) The volunteer gave an incorrect response at the highest level of Table 1.
In the first circumstance, threshold values were then calculated by averaging the last four reversals. In the second circumstance, the LT was the lowest level. In the third circumstance, the LT could not be calculated. Volunteers were considered qualified to participate in the panel evaluation if their LT could be calculated (Circumstance 1).
The LT of ammonia, both alone and in combination with diverse PRM, was determined. A repeated-measures design was used, such that the LT with and without the addition of a PRM were both measured at the same time in one person by utilizing interwoven stimuli presentations. The LT for each PRM was measured by two to three panellists, the third panellists being included if the results of the first to panellists disagreed. […]

Molecule | Ammonia LT Panellist 1 Cond II [ppm] | Ammonia LT Panellist 2 Cond II [ppm] | Ammonia LT Panellist 3 Cond II [ppm] | Ammonia LT Panellist 1 % Δ [%] | Ammonia LT Panellist 2 % Δ [%] | Ammonia LT Panellist 3 % Δ [%] | LT of ammonia Panellist 1 Cond II | LT of ammonia Panellist 2 Cond II | LT of ammonia Panellist 3 Cond II | LT of ammonia Panellist 1 %Δ [%] | LT of ammonia Panellist 2 %Δ [%] | LT of ammonia Panellist 3 %Δ [%]
CCCc1ccc(OC)cc1 [Dihydroestragole] | 7.3 | 71.9 | 22.9 | −62 | 28 | 214 | – | – | – | – | – | –
CCOC(=O)C1=C(C)C=CCC1(C)C [Ethyl 2,6,6-trimethyl-1,3-cyclohexadiene-1-carboxylate] | – | – | – | – | – | – | 0.6 | 0.6 | 0.2 | 786 | 215 | 200
CCOC(=O)C(C)CC (stereo not drawn) [Ethyl 2-methylbutanoate] | – | – | – | – | – | – | 19.6 | 11.1 | 11.1 | 214 | 213 | 77
CCOC(=O)C(=O)C(C)CC (stereo not drawn) [Ethyl 3-methyl-2-oxopentanoate] | – | – | – | – | – | – | 0.6 | 0.6 | 0.6 | 417 | 786 | 210
CCC=CCC=C/C=C/C(=O)OCC [Ethyl (2E)-2,4,7-decatrienoate] | – | – | – | – | – | – | 1.1 | 2.0 | 2.0 | 223 | 469 | 2743
O=C1CCCCCCCCCCCCCCO1 [Exaltolide ®, Pentadecanolide] | 6.1 | 71.9 | – | 213 | 214 | – | – | – | – | – | – | –
CC(C)CC1CC(C)(O)CCO1 (stereo not drawn) [Florol ®, Tetrahydro-2-isobutyl-4-methyl-4(2H)-pyranol] | 56.3 | 7.3 | 22.9 | 146 | −62 | 0 | – | – | – | – | – | –
CCOC(=O)C1CCC(C(=O)OCC)CC1 (stereo not drawn) [Fructalate ®, Diethyl 1,4-cyclohexane dicarboxylate] | 56.3 | 188.3 | – | 194 | 214 | – | – | – | – | – | – | –
CC(C)=CCC/C(C)=C/CO [Geraniol] | 6.1 | 60.0 | – | −68 | −73 | – | – | – | – | – | – | –
CCCCCC1C(=O)CCC1CC(=O)OC (stereo not drawn) [Hedione ®, Methyl dihydrojasmonate] | 7.5 | 22.9 | 6.1 | 23 | −90 | −68 | – | – | – | – | – | –
O=Cc1ccc2c(c1)OCO2 [Heliotropine ®, 1,3-Benzodioxole-5-carbaldehyde] | 7.3 | 22.9 | 2.3 | 274 | −87 | −96 | – | – | – | – | – | –
CCC(=O)OCC(C)(C)O[C@@H](C)[C@@H]1CCCC(C)(C)C1 [Helvetolide ®, (+)-(1S,1′R)-2-[1-(3′,3′-dimethyl-1′-cyclohexyl)ethoxy]-2-methylpropyl propanoate] | – | – | – | – | – | – | 11.1 | 2.0 | 2.0 | 454 | 426 | 895
CCCCCCOC(=O)c1ccccc1O [Hexyl salicylate] | 7.3 | 188.3 | 7.3 | −68 | 162 | −62 | – | – | – | – | – | –
CC(CC=O)CCCC(C)(C)O (stereo not drawn) [Hydroxycitronellal] | 71.9 | 56.1 | 22.9 | 20 | −22 | 20 | – | – | – | – | – | –
CCCC(=O)OCC(C)C [Isopropylmethyl butyrate] | 188.4 | 188.3 | – | 81809 | 235 | – | – | – | – | – | – | –
CC(C=O)Cc1ccc(C(C)(C)C)cc1 (stereo not drawn) [Lilial ®, 3-(4-Tert-butylphenyl)-2-methylpropanal] | 22.9 | 7.3 | 19.1 | 300 | −96 | 0 | – | – | – | – | – | –
Cc1ccc2c(c1)CC(C)(CO)C2 (stereo not drawn) [Lilyflore ®, 2,5-Dimethyl-2-indanmethanol] | 60.0 | 176.5 | 7.3 | 162 | −6 | −84 | – | – | – | – | – | –
C=CC(C)(O)CCC=C(C)C (stereo not drawn) [Linalool] | 188.3 | 22.9 | 56.3 | 2480 | 0 | 214 | – | – | – | – | – | –
CC(C)[C@H]1CC[C@@H](CO)CC1 [Mayol ®, cis-7-P-menthanol] | – | – | – | – | – | – | 0.6 | 3.5 | 3.5 | 800 | 212 | 212
COC(=O)c1ccccc1 [Methyl benzoate] | 7.3 | 60 | – | 213 | 162 | – | – | – | – | – | – | –
CCCCC[C@@H]1C(=O)CC[C@@H]1CC(=O)OC [Paradisone ®, (+)-Methyl (1R)-cis-3-oxo-2-pentyl-1-cyclopentaneacetate] | 22.9 | 225.5 | 6.1 | 0 | 214 | −73 | – | – | – | – | – | –
C=C1CCCC(C)(C)C1C(=O)OC (stereo not drawn) [Romascone ®, Methyl 2,2-dimethyl-6-methylene-1-cyclohexanecarboxylate] | – | – | – | – | – | – | 11.1 | 2.0 | 6.3 | 1685 | 77 | 1686
CC1=C(C=O)C(C)(C)CC=C1 [Safranal] | 22.9 | 2.2E−03 | – | 20 | 3088 | – | – | – | – | – | – | –
CCCOC(=O)[C@H](C)OC(C)(C)CC [Sclareolate ®, Propyl (S)-2-(1,1-dimethylpropoxy)propanoate] | – | – | – | – | – | – | 1.1 | 1.1 | 0.6 | 465 | 223 | −2
Cedrenol | 2.3 | 60 | 2.3 | −68 | 162 | −96 | – | – | – | – | – | –
